This is an account of results in US4694090A, “Chroman compounds useful as analgerics and antioxidants” (Kuraray Co., Ltd., priority 1984, dated 1987).

Each structure is given as a SMILES string. Where a name gives a salt, the structure may show the parent alone.

A short description of data set [1]: Inhibition of linoleic acid oxidation (ferric thiocyanate absorbance at 500 mμ). As to conditions: 0.2% by weight on linoleic acid basis, pH 9, 70° C. The procedure: Inhibition of linoleic acid oxidation
A test solution (10 ml) was prepared by adding each test compound, in an amount of 0.2% by weight on the linoleic acid basis, to a borate buffer (pH 9) containing 10^-2 M sodium linoleate. A 0.2 ml portion of the test solution was heated at 70° C. for a specified period of time. After heating, 4.7 ml of 75% ethanol and 0.1 ml of 30% ammonium thiocyanate were added to said test solution, and the mixture was stirred well. Then, 0.1 ml of a ferrous chloride solution [the supernatant obtained by adding an aqueous ferrous sulfate solution (0.6 g/50 ml) and 10 ml of concentrated hydrochloric acid to an aqueous barium chloride solution (0.5 g/50 ml), followed by adequate stirring and standing for a while] was added to said mixture. Exactly 3 minutes later, the resulting solution was measured for the absorbance at 500 mμ. In this way, the trivalent iron formed by the oxidative action of sodium linoleate peroxides was assayed and, based on the assay data, the test compounds were compared with respect to antioxidant activity [cf. Shokuhin Kogaku Jikkensho (Experiments in Food Engineering), vol. I, edited by the Department of Food Engineering, Faculty of Agriculture, Kyoto University, pages 634-635]. The greater the absorbance of the test solution after heating is, the greater the amount of sodium linoleate peroxides formed is.

Data set [2] in a line: AOM (Antioxygen Method) test in ethyl linoleate, time till POV 100 meq/kg. As to conditions: 0.020 g per 100 g ethyl linoleate, aeration 2.33 cc/sec., 97.8° C. Here is the method:
To each 100 g of ethyl linoleate was added 0.020 g of one of the test compounds indicated in Table 7 to prepare a test solution. A 20 ml portion of each test solution was exposed to the accelerated conditions of aeration of 2.33 cc/sec. at 97.8° C. in an AOM (Antioxygen Method) test and the time period till the POV (peroxide value) reached 100 meq/kg was determined.

The conditions of data set [3]: Japanese Laid-Open Patent Publication No. 94382/1980; cited from earlier work.
For data set [4], the system named is isoprenaline-induced bronchodilation. The experiment in a line: Bronchodilator activity, lung perfusion. As to conditions: Table 8: guinea pig, in vitro, 300 μg. The procedure:
(§1) β-(2,3-Dihydro-6-hydroxy-2,5,7,8-tetramethyl-2H-benzopyranyl)alanine hydrochloride was evaluated for analgesic activity in the writhing test [cf. Koster et al., Fed. Proc., 18, 412 (1959)], local anesthetic activity in the tail pinch test [cf. Bianchi, C., Brit. J. Pharmacol., 11, 104 (1956)] and bronchodilator activity in lung perfusion [cf. Luduena, F. P., Arch. Int. Pharmacodyn., 111, 392 (1957)].
>40% reduction in Inhibited

Data set [5] can be described thus: Local anesthetic activity, tail pinch test. The data set is classed as in vivo, Mouse. As to conditions: s.c., 3%. Here is the method: as §1
Data set [6] is described as follows: Acute toxicity (oral administration). The note with it: mouse, in vivo, male mice. An excerpt:
Among the chroman compounds (I), the chroman compounds (I-2) show excellent analgesic activity. In addition, these compounds have low toxicity. […] So, the chroman compounds (I-2) can be used as an analgesic.

A short description of data set [7]: Analgesic activity, acetic acid writhing test (mice). The note with it: 100 mg/kg, s.c., male ddY mice, groups of ten. It is filed as in vivo, Male ddY strain mice.
Data set [8] can be described thus: Analgesic activity, writhing test (rat). As to conditions: i.p., 100 mg/kg. It is filed as in vivo. Here is the method: as §1
In general terms: In writhing tests, fewer writhes than in controls are read as antinociception.

For the compound `Cc1cc2c(c(C)c1O)CCC(C)(CC(N)C(=O)O)O2` (centres unmarked), in data set [1], the “Absorbance, solution after 1 hr. of heating” value is recorded as 0.02; the “Absorbance, solution after 2 hrs. of heating” value is given as 0.03; the “Absorbance, solution after 3 hrs. of heating” value came to 0.04.
As to `CC1(CC(N)C(=O)O)CCc2cc(O)ccc2O1` (centres unmarked), in data set [1], the “Absorbance, solution after 1 hr. of heating” value is reported as 0.02; the “Absorbance, solution after 2 hrs. of heating” value worked out at 0.03; the “Absorbance, solution after 3 hrs. of heating” value worked out at 0.03.
Take `Cc1c(C)c2c(c(C)c1O)CCC(C)(CC(N)C(=O)O)O2` (centres unmarked) [drawing 62]: in data set [1], the “Absorbance, solution after 1 hr. of heating” value stood at 0.02; the “Absorbance, solution after 2 hrs. of heating” value stood at 0.03; the “Absorbance, solution after 3 hrs. of heating” value worked out at 0.03.
On to `Cc1c(C)c2c(c(C)c1O)CCC(C)(C(N)C(=O)O)O2` (centres unmarked), for which, in data set [1], the “Absorbance, solution after 1 hr. of heating” value is 0.02; the “Absorbance, solution after 2 hrs. of heating” value is given as 0.03; the “Absorbance, solution after 3 hrs. of heating” value came out at 0.03.
On to `O=C1OC(C(O)CO)C(O)=C1O` (centres unmarked) [Sodium erithorbate, reference compound], for which, in data set [1], the “Absorbance, solution after 1 hr. of heating” value came out at 0.11; the “Absorbance, solution after 2 hrs. of heating” value turned out to be 0.17; the “Absorbance, solution after 3 hrs. of heating” value came to 0.18.
For `Cc1c(C)c2c(c(C)c1O)CCC(C)(CCCC(C)CCCC(C)CCCC(C)C)O2` (stereo not drawn) [α-Tocopherol, reference compound], in data set [1], the “Absorbance, solution after 1 hr. of heating” value amounted to 0.07; the “Absorbance, solution after 2 hrs. of heating” value is 0.19; the “Absorbance, solution after 3 hrs. of heating” value worked out at 0.30. The “Time till POV = 100 meq/kg” value in data set [2] was found to be 1.4 h.
Regarding `Cc1c(C)c2c(c(C)c1OC(C)(C)COC(=O)c1cccnc1)CCC(C)(C)O2` [2-(2,2,5,7,8-pentamethyl-6-chromanyloxy)isobutyl nicotinate], the cholesterol lowering activity entry in data set [3] is reported as “have cholesterol lowering activity”.
Regarding `Cc1c(C)c2c(c(C)c1O)CCC(C)(CC(N)C(=O)O)O2` (centres unmarked) [drawing 70], in data set [1], the “Absorbance, solution after 1 hr. of heating” value turned out to be 0.02; the “Absorbance, solution after 2 hrs. of heating” value was found to be 0.03; the “Absorbance, solution after 3 hrs. of heating” value was 0.04.
For `Cc1cc(O)cc2c1OC(C)(CC(N)C(=O)O)CC2` (centres unmarked), in that order: 0.02, 0.03 and 0.03.
For `CCCCCCCCCCCCCCCCCCOC(=O)C(N)CC1(C)CCc2c(C)c(O)c(C)c(C)c2O1` (centres unmarked) the same measures were 0.03, 0.04 and 0.07.
Turning to `Cc1cc(O)cc2c1OC(C)(CC(O)C(=O)O)CC2` (centres unmarked), the “Time till POV = 100 meq/kg” value in data set [2] was found to be 2.3 h.
As for `Cc1c(C)c2c(c(C)c1O)CCC(C)(CC(N)C(=O)O)O2` (centres unmarked) [drawing 71], in data set [1], the “Absorbance, solution after 1 hr. of heating” value worked out at 0.02; the “Absorbance, solution after 2 hrs. of heating” value is 0.03; the “Absorbance, solution after 3 hrs. of heating” value was found to be 0.03.
Consider `O=C1O[C@H]([C@@H](O)CO)C(O)=C1O` [Ascorbic acid, reference compound], for which, in data set [1], the “Absorbance, solution after 1 hr. of heating” value was found to be 0.10; the “Absorbance, solution after 2 hrs. of heating” value amounted to 0.21; the “Absorbance, solution after 3 hrs. of heating” value is 0.30.
One may read the LD50 as the dose expected to kill half of the subjects tested. Low values mean greater toxicity, high ones lower toxicity. What is called inhibition is the relative decrease from the control value, in per cent. Read a high inhibition as a strong effect. For `Cc1c(C)c2c(c(C)c1O)CCC(C)(CC(N)C(=O)O)O2` (stereo not drawn) [Example 1, β-(2,3-dihydro-6-hydroxy-2,5,7,8-tetramethyl-2H-benzopyranyl)alanine hydrochloride], the “isoprenaline-induced bronchodilation (in words)” value in data set [4] is recorded as “An inhibition of isoprenaline-induced bronchodilation is also observed”. Also, the “Activity observed (animals protected)” value in data set [5] (Mouse, tested at 15 min post-dose, criterion >3/5 protected) is on record as 5/5. Moreover, the “local anesthetic activity (in words)” value in data set [5] (Table 8: mouse) was “demonstrated a local anesthetic activity”. In data set [6], this compound returned an LD50 of 2620 mg/kg. This compound also gave an inhibition in data set [7] of 96.1%. Besides, the “Activity observed (writhing score, criterion <50% of control group)” value in data set [8] (Rat, test 0.75 hr post-dose) is 16%. This compound also had an inhibition of writhing in data set [8] (Table 8: rat) of 84%.
As to `CC1(CC(O)C(=O)O)CCc2cc(O)ccc2O1` (centres unmarked), the “Time till POV = 100 meq/kg” value in data set [2] is 2.2 h.
With `CCOC(=O)C(O)C1(C)CCc2c(C)c(O)c(C)c(C)c2O1` (centres unmarked), the “Time till POV = 100 meq/kg” value in data set [2] came to 2.1 h.
`Cc1c(C)c2c(c(C)c1O)CCC(C)(CN)O2` (centres unmarked) [Example 19, (2,3-dihydro-6-hydroxy-2,5,7,8-tetramethyl-2H-benzopyranyl)methylamine hydrochloride] gave an inhibition in data set [7] of 65.6%.
Same read-out and setting: as for `Cc1c(C)c2c(c(C)c1O)CCC(C)(CC(N)CO)O2` (centres unmarked) [Example 17, 2-amino-3-[2-(2,3-dihydro-6-hydroxy-2,5,7,8-tetramethyl-2H-benzopyranyl)]-1-propanol], the figure is 83.7%.
For the compound `Cc1c(C)c2c(c(C)c1OC(C)(C)C(=O)OCCN(C)C)CCC(C)(C)O2` [2-(N,N-dimethylamino)ethyl 2-(2,2,5,7,8-pentamethyl-6-chromanyloxy)isobutyrate], the cholesterol lowering activity result in data set [3] is reported as “have cholesterol lowering activity”.
On to `COc1c(O)c(C)c2c(c1OC)OC(C)(CC(O)C(=O)O)CC2` (centres unmarked), for which, in data set [2], the “Time till POV = 100 meq/kg” value is 2.2 h.
As for `COC(=O)C(O)CCC1(C)CCc2c(C)c(O)c(C)c(C)c2O1` (centres unmarked), the “Time till POV = 100 meq/kg” value in data set [2] came to 2.1 h.
For `CC(=O)Oc1ccccc1C(=O)O` [Aspirin, reference compound], the inhibition in data set [7] is listed as 40.8%.
With `COc1c(O)c(C)c2c(c1OC)OC(C)(CC(N)C(=O)O)CC2` (centres unmarked), in data set [1], the “Absorbance, solution after 1 hr. of heating” value amounted to 0.02; the “Absorbance, solution after 2 hrs. of heating” value came out at 0.03; the “Absorbance, solution after 3 hrs. of heating” value is on record as 0.05.
For the compound `Cc1c(C)c2c(c(C)c1O)CCC(C)(CC(O)C(=O)O)O2` (centres unmarked), in data set [2], the “Time till POV = 100 meq/kg” value was found to be 2.4 h.
Turning to `Cc1c2c(c3ccccc3c1O)OC(C)(CC(N)C(=O)O)CC2` (centres unmarked), in data set [1], the “Absorbance, solution after 1 hr. of heating” value came to 0.02; the “Absorbance, solution after 2 hrs. of heating” value worked out at 0.03; the “Absorbance, solution after 3 hrs. of heating” value is listed as 0.05.
For `CCOC(=O)C(O)CC1(C)CCc2c(C)c(O)c(C)c(C)c2O1` (centres unmarked), the “Time till POV = 100 meq/kg” value in data set [2] came out at 2.3 h.
With `Cc1c2c(c3ccccc3c1O)OC(C)(CC(O)C(=O)O)CC2` (centres unmarked), in data set [2], the “Time till POV = 100 meq/kg” value came to 1.9 h.
On the same count and under the same terms, as for `Cc1c(C)c2c(c(C)c1O)CCC(C)(C(O)C(=O)O)O2` (centres unmarked), the figure is 2.3 h.
Consider `Cc1c(C)c2c(c(C)c1O)CCC(C)(CCC(N)C(=O)O)O2` (centres unmarked), for which, in data set [1], the “Absorbance, solution after 1 hr. of heating” value stood at 0.02; the “Absorbance, solution after 2 hrs. of heating” value turned out to be 0.03; the “Absorbance, solution after 3 hrs. of heating” value stood at 0.04.
Turning to `Cc1c(C)c2c(c(C)c1O)CCC(C)(CCC(O)C(=O)O)O2` (centres unmarked), the “Time till POV = 100 meq/kg” value in data set [2] was 2.0 h.
For `CCOC(=O)C(N)CC1(C)CCc2c(C)c(O)c(C)c(C)c2O1` (centres unmarked), in data set [1], the “Absorbance, solution after 1 hr. of heating” value stood at 0.02; the “Absorbance, solution after 2 hrs. of heating” value amounted to 0.03; the “Absorbance, solution after 3 hrs. of heating” value was 0.05.
